From patent US12371459B2, “Antimicrobial peptide derived from Pseudin-2 peptide and uses thereof” (INDUSTRY-ACADEMIC COOPERATION FOUNDATION, CHOSUN UNIVERSITY, priority 2019, dated 2025)
Where “and” joins values, the source holds several entries; their conditions need not be identical. Equal values may be shown once. Ends that are not written are not given here.

Columns and labels:
[1] = tested on: Bacillus subtilis KCTC 1998; details: KCTC 1998, 18 h
Description: (§1) To compare the antimicrobial activity among the peptides produced by the method of Example 1, the inventors of the present invention measured the minimal growth inhibitory concentration (MIC), which is minimum concentration of the peptide not allowing any […] of bacterial cells.
(§2) Specifically, the bacterial strains described in the following Table 2 were purchased and cultured to a mid-log phase in a medium that is appropriate for each strain. […] After the addition to a plate, the cells were cultured for 18 hours at 37° C. […] As a control, Pseudin-2 as a mother peptide was used.

[2] = tested on: Candida albicans KCTC 7270; details: KCTC 7270, 18 h
Description: as §1, §2

[3] = tested on: Escherichia coli ATCC 25922; details: ATCC 25922, 18 h
Description: as §1, §2

[4] = tested on: Escherichia coli CCARM 1229 (tolerance to antibiotics)
Description: as §1, §2

[5] = tested on: Escherichia coli CCARM 1238 (tolerance to antibiotics)
Description: as §1, §2

[6] = tested on: Listeria monocytogenes KCTC 3710; details: KCTC 3710, 18 h
Description: as §1, §2

[7] = tested on: Pseudomonas aeruginosa ATCC 27853; details: ATCC 27853, 18 h
Description: as §1, §2

[8] = tested on: Pseudomonas aeruginosa isolated strain 4007 (tolerance to antibiotics)
Description: as §1, §2

[9] = tested on: Pseudomonas aeruginosa isolated strain 4891 (tolerance to antibiotics)
Description: as §1, §2

[10] = tested on: Salmonella typhimurium KCTC 1926; details: KCTC 1926, 18 h
Description: as §1, §2

[11] = tested on: Staphylococcus aureus ATCC 25923; details: ATCC 25923, 18 h
Description: as §1, §2

[12] = tested on: Staphylococcus aureus CCARM 3090 (tolerance to antibiotics)
Description: as §1, §2

[13] = tested on: Staphylococcus aureus CCARM 3518 (tolerance to antibiotics)
Description: as §1, §2

[14] = tested on: Trichosporon beigelii KCTC 7707; details: KCTC 7707, 18 h
Description: as §1, §2

in vitro = details: human, HaCaT keratinocyte cells
Method: To determine the cytotoxicity of the peptides produced by the method of Example 1 in normal cell line, cytotoxicity was measured by using human keratinocyte cell line (HaCaT cell line, Dr. N E. Fusenig, Heidelberg, Germany).
Specifically, HaCaT cells, which have been cultured in DMEM medium containing 10% FBS (fetal bovine serum), were aliquoted in a microtiter plate to have 2×10^5 cells per well. […] Twenty-four hours later, a reaction solution containing 0.5 mg/ml MTT (thiazolyl blue tetrazolium bromide) dissolved in phosphate buffered saline (PBS) was added in an amount of 100 μl to each well and the reaction was allowed to occur for 4 hours. After that, the supernatant was discarded, and, by dissolving MTT crystals that are formed by adding 200 μl DMSO (dimethyl sulfoxide), the absorbance at 560 nm was measured to determine the cell survival ability.

[15] = tested on: erythrocytes of a mouse (Balb/c); assay: Erythrocyte hemolytic activity; details: 1 hour at 37° C.
Method: To compare the cytotoxicity among the peptides that are produced by the method of Example 1, erythrocyte hemolytic activity of the synthesized peptide was measured.
After that, the amount of hemoglobin contained in a supernatant collected by centrifuge at 1,000×g was determined by measuring the absorbance at a wavelength of 414 nm. As a control to be used as a reference for cell disruption level, the supernatant collected by a treatment with 1% Triton X-100 (Sigma, USA) and a reaction for 1 hour at 37° C. was used to measure the absorbance. By setting the resulting absorbance value at 100% of the erythrocyte hemolytic activity, hemolysis of each peptide was calculated using the following equation 1. Erythrocyte disrupting ability (%)=(Absorbance A−Absorbance B)/(Absorbance C−Absorbance B)×100 Equation 1 (in the above equation, Absorbance A indicates the absorbance of a reaction solution treated with each peptide, in which the absorbance is measured at a wavelength of 414 nm; Absorbance B indicates the absorbance of a reaction solution treated with PBS, in which the absorbance is measured at a wavelength of 414 nm; and Absorbance C indicates the absorbance of a reaction solution treated with 1% Triton X-100, in which the absorbance is measured at a wavelength of 414 nm).

plasmid DNA (pRSETB) = assay: Binding between antimicrobial peptide and DNA (agarose gel electrophoresis); details: plasmid DNA 300 ng, peptide/DNA ratio 0.25:1 to 4:1, 10 minutes at 37° C.
Method: Specifically, plasmid DNA (pRSETB, 300 ng) and the peptide were reacted for at different ratio (i.e., peptide/DNA ratio was 0 (DNA only), 0.25:1, 0.5:1, 1:1, 1.5:1, 2:1, 3:1, or 4:1) for 10 minutes at 37° C. After that, electrophoresis was carried out using 1% agarose gel followed by staining with ethidium bromide (EtBr) and UV determination.

Escherichia coli = assay: Flow cytometry, propidium iodide, effect on bacteria membrane; assay type: cell-based; details: peptide at MIC
Method: (§3) After that, the supernatant was removed by centrifuge (10,000 rpm) and stained with propidium iodide (PI, concentration of 10 μg/ml) for 30 minutes at 4° C. Thereafter, unbound propidium iodide was removed by centrifuge, and the problem of cell aggregation phenomenon was solved by adding physiological saline (PBS) in an amount of 1 ml.

Staphylococcus aureus = assay: as above; assay type: cell-based; details: peptide at MIC
Method: as §3

Substance | Minimal inhibitory concentration [1] | Minimal inhibitory concentration [2] | Minimal inhibitory concentration [3] | Minimal inhibitory concentration [4] | Minimal inhibitory concentration [5] | Minimal inhibitory concentration [6] | Minimal inhibitory concentration [7] | Minimal inhibitory concentration [8] | Erythrocyte disrupting ability ([15]; peptide concentration 3.13 μM) | Erythrocyte disrupting ability ([15]; peptide concentration 6.25 μM) | Erythrocyte disrupting ability ([15]; peptide concentration 12.5 μM) | Erythrocyte disrupting ability ([15]; peptide concentration 25 μM) | Erythrocyte disrupting ability ([15]; peptide concentration 50 μM) | Erythrocyte disrupting ability ([15]; peptide concentration 100 μM) | viability at 24 h, 3.13 µM (in vitro) | viability at 24 h, 6.25 µM (in vitro) | viability at 24 h, 12.5 µM (in vitro) | viability at 24 h, 25 µM (in vitro) | viability at 24 h, 50 µM (in vitro) | viability at 24 h, 100 µM (in vitro) | other results
ALNALKKVSQGIHEAIKLIANHVQ-NH2 [Pse-Anal7] | 16 µM | 32 µM | 8 µM | 16 µM | 16 µM | 16 µM | 8 µM | 32 µM |  |  |  |  |  |  |  |  |  |  |  |  | Minimal inhibitory concentration [9]: 32 µM; Minimal inhibitory concentration [10]: 8 µM; Minimal inhibitory concentration [11]: 16 µM; Minimal inhibitory concentration [12]: 32 µM; Minimal inhibitory concentration [13]: 32 µM; Minimal inhibitory concentration [14]: 32 µM; viability at 24 h, 3.13 µM (in vitro; Cell survival ability): 100%; viability at 24 h, 6.25 µM (in vitro; Cell survival ability): 100%; viability at 24 h, 12.5 µM (in vitro; Cell survival ability): 100%; viability at 24 h, 25 µM (in vitro; Cell survival ability): 100%; viability at 24 h, 50 µM (in vitro; Cell survival ability): 100%; viability at 24 h, 100 µM (in vitro; Cell survival ability): 100%
GLNALKKVFQGIHEAIKKINNHVQ-NH2 [Pse-18L-K] |  |  |  |  |  |  |  |  | 2.4% | 3.4% | 5.4% | 12.5% | 24.2% | 36.7% | 100% | 100% | 100% | 100% | 100% | 81.5% | 
GLNALKKVFQGIHEAIKLINNHVQ-NH2 [Pseudin-2] |  |  |  |  |  |  |  |  | 0% | 0% | 0% | 0% | 3.2% | 10% and 10.1% | 100% | 100% | 100% | 100% | 100% | 82.1% | Binding to DNA (plasmid DNA (pRSETB)): did not show any binding to DNA
GLNALKKVSQGIHEAIKLINNHVQ-NH2 [Pse-Anal5] |  |  |  |  |  |  |  |  | 0% | 0.7% | 2.3% | 5.9% | 11.7% | 20.1% | 100% | 100% | 100% | 100% | 96.3% | 83.5% | 
GLNALKKVSQGIHESIKLINNHVQ-NH2 [Pse-Anal6] | 32 µM | 64 µM | 16 µM | 64 µM | 64 µM | 32 µM | 16 µM | 64 µM |  |  |  |  |  |  |  |  |  |  |  |  | Minimal inhibitory concentration [9]: 64 µM; Minimal inhibitory concentration [10]: 16 µM; Minimal inhibitory concentration [11]: 32 µM; Minimal inhibitory concentration [12]: 64 µM; Minimal inhibitory concentration [13]: 64 µM; Minimal inhibitory concentration [14]: 64 µM; viability at 24 h, 3.13 µM (in vitro; Cell survival ability): 100%; viability at 24 h, 6.25 µM (in vitro; Cell survival ability): 100%; viability at 24 h, 12.5 µM (in vitro; Cell survival ability): 100%; viability at 24 h, 25 µM (in vitro; Cell survival ability): 100%; viability at 24 h, 50 µM (in vitro; Cell survival ability): 100%; viability at 24 h, 100 µM (in vitro; Cell survival ability): 92.1%
LNALKKVFQGIHEAIKLI-NH2 [Pse-T1] |  |  |  |  |  |  |  |  | 0% | 0% | 0% | 0% | 3.9% | 12.3% | 100% | 100% | 100% | 100% | 98.8% | 86.2% | Membrane disrupting ability compared with Pseudin-2 (Escherichia coli): higher membrane disrupting ability than Pseudin-2; Membrane disrupting ability compared with Pseudin-2 (Staphylococcus aureus): higher membrane disrupting ability than Pseudin-2; Binding to DNA (plasmid DNA (pRSETB)): showed binding to DNA
WLNALKKVFQGIHEAIKLINNHVQ-NH2 [Pse-Anal1] |  |  |  |  |  |  |  |  | 50.9% | 58.6% | 68.9% | 82.0% | 93.5% | 100% | 80.1% | 35.2% | 26.8% | 15.9% | 13.6% | 1.8% | 
WLNALKKVFQGIHEAIKLIWNHVQ-NH2 [Pse-Anal2] | 4 µM | 32 µM | 2 µM | 2 µM | 2 µM | 8 µM | 2 µM | 2 µM |  |  |  |  |  |  |  |  |  |  |  |  | Minimal inhibitory concentration [9]: 4 µM; Minimal inhibitory concentration [10]: 2 µM; Minimal inhibitory concentration [11]: 4 µM; Minimal inhibitory concentration [12]: 4 µM; Minimal inhibitory concentration [13]: 4 µM; Minimal inhibitory concentration [14]: 32 µM; viability at 24 h, 3.13 µM (in vitro; Cell survival ability): 81.3%; viability at 24 h, 6.25 µM (in vitro; Cell survival ability): 48.1%; viability at 24 h, 12.5 µM (in vitro; Cell survival ability): 32.2%; viability at 24 h, 25 µM (in vitro; Cell survival ability): 18.8%; viability at 24 h, 50 µM (in vitro; Cell survival ability): 15.7%; viability at 24 h, 100 µM (in vitro; Cell survival ability): 5.1%
WLNALKKVFQGIHEAIKLIWNWVQ-NH2 [Pse-Anal3] | 32 µM | 32 µM | 16 µM | 32 µM | 32 µM | 32 µM | 16 µM | 64 µM |  |  |  |  |  |  |  |  |  |  |  |  | Minimal inhibitory concentration [9]: 64 µM; Minimal inhibitory concentration [10]: 16 µM; Minimal inhibitory concentration [11]: 32 µM; Minimal inhibitory concentration [12]: 32 µM; Minimal inhibitory concentration [13]: 32 µM; Minimal inhibitory concentration [14]: 32 µM; viability at 24 h, 3.13 µM (in vitro; Cell survival ability): 55.4%; viability at 24 h, 6.25 µM (in vitro; Cell survival ability): 45.8%; viability at 24 h, 12.5 µM (in vitro; Cell survival ability): 25.6%; viability at 24 h, 25 µM (in vitro; Cell survival ability): 24.1%; viability at 24 h, 50 µM (in vitro; Cell survival ability): 13.6%; viability at 24 h, 100 µM (in vitro; Cell survival ability): 10.8%
